Measured values: patent publication US20120029190A1, “COMPOUNDS FOR TREATING DISORDERS MEDIATED BY METABOTROPIC GLUTAMATE RECEPTOR 5, AND METHODS OF USE THEREOF” (priority 2009, published 2012)

biological target: T1, human recombinant mGluR5 receptor (Homo sapiens, UniProt P41594); assay: mGluR5 in vitro functional assay (aequorin cell line, inhibition of glutamate EC80 response); assay type: cell-based; conditions: Table 1; aequorin cell line expressing human mGluR5, reference agonist glutamate at EC80; obtained in duplicate; read-out: IC50
T1 construct: expressed in transfected cells; expression induced with doxycycline
Description: B. mGluR5 In Vitro Functional Assay
The functional assay utilized an aequorin cell line expressing human recombinant mGluR5 receptor, an inducible cell line that expresses the human receptor under the control of a promoter induced by doxycycline.
mGluR5 cells in mid-log phase, grown 18 hours prior to the test in antibiotic-free media supplemented with doxycycline (600 ng/mL), were detached by gentle flushing with PBS-EDTA ([…]). The cells were recovered by centrifugation and resuspended in assay buffer (HBSS, […], 3 ug/mL glutamate-pyruvate transaminase, […] MEM sodium pyruvate, 0.1% BSA protease-free). Cells were incubated at room temperature for at least 4 hours with Coelenterazine h (Molecular Probes). The cell suspension (60 uL) containing the test compound was mixed with a solution of reference agonist (30 uL) at its EC80, following an incubation of 3 min. after the first injection. The resulting emission of light was recorded using a Hamamatsu Functional Drug Screening System 6000 (FDSS 6000). To standardize the emission of recorded light (determination of the “100% signal’) across plates and across different experiments, some of the wells contained 100 uM digitonin or a saturating concentration (20 mM) of ATP. Plates also contained the reference agonist (glutamate) at a concentration equivalent to the EC80 obtained during assay validation. Percentages of inhibition were calculated on the basis of the activation induced by the reference agonist at a concentration equal to the EC80. Dose-response data were analyzed with XLFit (IDBS) software using nonlinear regression applied to a sigmoidal dose-response model.

T1 sequence (P41594 21-1212): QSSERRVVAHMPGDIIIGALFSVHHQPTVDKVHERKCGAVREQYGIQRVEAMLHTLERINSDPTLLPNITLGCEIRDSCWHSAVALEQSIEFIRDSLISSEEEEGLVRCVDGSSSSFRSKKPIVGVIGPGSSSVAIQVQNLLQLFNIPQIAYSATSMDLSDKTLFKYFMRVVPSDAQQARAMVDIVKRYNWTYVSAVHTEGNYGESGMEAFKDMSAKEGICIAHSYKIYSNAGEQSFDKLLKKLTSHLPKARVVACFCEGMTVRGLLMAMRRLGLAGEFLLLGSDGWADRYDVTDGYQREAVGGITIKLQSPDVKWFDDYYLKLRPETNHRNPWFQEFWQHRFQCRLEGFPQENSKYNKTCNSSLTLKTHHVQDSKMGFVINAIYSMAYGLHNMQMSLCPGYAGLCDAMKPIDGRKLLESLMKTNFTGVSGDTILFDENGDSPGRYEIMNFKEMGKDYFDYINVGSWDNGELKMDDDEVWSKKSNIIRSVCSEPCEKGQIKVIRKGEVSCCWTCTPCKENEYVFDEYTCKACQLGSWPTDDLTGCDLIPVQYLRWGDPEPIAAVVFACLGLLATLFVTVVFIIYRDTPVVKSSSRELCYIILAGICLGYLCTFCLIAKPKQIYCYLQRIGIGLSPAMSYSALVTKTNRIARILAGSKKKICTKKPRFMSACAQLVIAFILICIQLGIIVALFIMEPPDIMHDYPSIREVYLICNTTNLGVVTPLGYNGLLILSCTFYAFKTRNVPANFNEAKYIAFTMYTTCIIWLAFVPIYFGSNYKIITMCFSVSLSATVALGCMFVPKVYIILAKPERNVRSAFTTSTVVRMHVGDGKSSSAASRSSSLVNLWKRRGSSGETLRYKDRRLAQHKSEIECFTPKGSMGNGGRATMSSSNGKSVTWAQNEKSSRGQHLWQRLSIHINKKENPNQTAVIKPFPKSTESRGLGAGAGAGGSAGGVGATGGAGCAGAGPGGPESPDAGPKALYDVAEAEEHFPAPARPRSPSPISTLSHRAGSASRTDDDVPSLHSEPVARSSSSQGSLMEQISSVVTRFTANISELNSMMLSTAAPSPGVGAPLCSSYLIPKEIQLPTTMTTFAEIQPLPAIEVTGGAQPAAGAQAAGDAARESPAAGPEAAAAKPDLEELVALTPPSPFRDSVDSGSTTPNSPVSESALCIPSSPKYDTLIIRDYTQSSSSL

Structure (SMILES)	IC50 [nM]
CC1CN(c2cc(F)cc(C#N)c2)Cc2oc(-c3ccccn3)nc21 (racemic) [Compound 81, (+/−)-3-Fluoro-5-(7-methyl-2-(pyridin-2-yl)-6,7-dihydrooxazolo[5,4-c]pyridin-5(4H)-yl)benzonitrile]	< 1000
CC1CN(c2cc(F)cc(C#N)c2)Cc2nc(-c3ccccn3)oc21 (racemic) [Compound 82, (+/−)-3-Fluoro-5-(7-methyl-2-(pyridin-2-yl)-6,7-dihydrooxazolo[4,5-c]pyridin-5(4H)-yl)benzonitrile]	< 1000
N#Cc1cccc(N2CCc3nc(-c4ccccn4)oc3C2)c1 [Compound 1, 3-(2-(Pyridin-2-yl)-6,7-dihydrooxazolo[5,4-c]pyridin-5(4H)-yl)benzonitrile]	< 1000
c1ccc(-c2nc3c(o2)CN(c2ccccn2)CC3)nc1 [Compound 2, 2,5-Di(pyridin-2-yl)-4,5,6,7-tetrahydro-oxazolo[5,4-c]pyridine]	< 10000
N#Cc1cccnc1N1CCc2nc(-c3ccccn3)oc2C1 [Compound 3, 2-(2-(Pyridin-2-yl)-6,7-dihydrooxazolo[5,4-c]pyridin-5(4H)-yl)nicotinonitrile]	< 1000
N#Cc1cc(F)cc(N2CCc3nc(-c4ccccn4)oc3C2)c1 [Compound 4, 3-Fluoro-5-(2-(pyridin-2-yl)-6,7-dihydrooxazolo[5,4-c]pyridin-5(4H)-yl)benzonitrile]	< 1000
c1ccc(-c2nc3c(o2)CN(c2cccnc2)CC3)nc1 [Compound 5, 2-(Pyridin-2-yl)-5-(pyridin-3-yl)-4,5,6,7-tetrahydrooxazolo[5,4-c]pyridine]	> 10000
N#Cc1cccc(N2CCc3nc(-c4ccccn4)oc3C2)n1 [Compound 6, 6-(2-(Pyridin-2-yl)-6,7-dihydrooxazolo[5,4-c]pyridin-5(4H)-yl)picolinonitrile]	< 10000
N#Cc1ccnc(N2CCc3nc(-c4ccccn4)oc3C2)c1 [Compound 7, 2-(2-(Pyridin-2-yl)-6,7-dihydrooxazolo[5,4-c]pyridin-5(4H)-yl)isonicotinonitrile]	< 10000
N#Cc1cncc(N2CCc3nc(-c4ccccn4)oc3C2)c1 [Compound 8, 5-(2-(Pyridin-2-yl)-6,7-dihydrooxazolo[5,4-c]pyridin-5(4H)-yl)nicotinonitrile]	< 10000
N#Cc1cc(N2CCc3nc(-c4ccccn4)oc3C2)ccn1 [Compound 9, 4-(2-(Pyridin-2-yl)-6,7-dihydrooxazolo[5,4-c]pyridin-5(4H)-yl)picolinonitrile]	< 10000
N#Cc1cc(Br)cc(N2CCc3nc(-c4ccccn4)oc3C2)c1 [Compound 10, 3-Bromo-5-(2-(pyridin-2-yl)-6,7-dihydrooxazolo[5,4-c]pyridin-5(4H)-yl)benzonitrile]	< 1000
N#Cc1cc(N2CCOCC2)cc(N2CCc3nc(-c4ccccn4)oc3C2)c1 [Compound 11, 3-Morpholino-5-(2-(pyridin-2-yl)-6,7-dihydrooxazolo[5,4-c]pyridin-5(4H)-yl)benzonitrile]	> 10000
N#Cc1cccc(C(=O)N2CCc3nc(-c4ccccn4)oc3C2)c1 [Compound 12, 3-(2-(Pyridin-2-yl)-4,5,6,7-tetrahydrooxazolo[5,4-c]pyridine-5-carbonyl)benzonitrile]	< 10000
N#Cc1cccc(CN2CCc3nc(-c4ccccn4)oc3C2)c1 [Compound 13]	< 10000
Fc1cc(-c2ccncc2)cc(N2CCc3nc(-c4ccccn4)oc3C2)c1 [Compound 14, 5-(3-Fluoro-5-(pyridin-4-yl)phenyl)-2-(pyridin-2-yl)-4,5,6,7-tetrahydrooxazolo[5,4-c]pyridine]	< 10000
N#Cc1cccc(N2CCc3nc(-c4cccc[n+]4[O-])oc3C2)c1 [Compound 15, 2-(5-(3-Cyanophenyl)-4,5,6,7-tetrahydrooxazolo[5,4-c]pyridin-2-yl)pyridine 1-oxide]	< 1000
N#Cc1cc(C#N)cc(N2CCc3nc(-c4ccccn4)oc3C2)c1 [Compound 16, 5-(2-(Pyridin-2-yl)-6,7-dihydrooxazolo[5,4-c]pyridin-5(4H)-yl)isophthalonitrile]	< 10000
Fc1cc(F)cc(N2CCc3nc(-c4ccccn4)oc3C2)c1 [Compound 17, 5-(3,5-Difluorophenyl)-2-(pyridin-2-yl)-4,5,6,7-tetrahydrooxazolo[5,4-c]pyridine]	< 1000
c1ccc(-c2nc3c(o2)CN(c2cnccn2)CC3)cc1 [Compound 18, 2-Phenyl-5-(pyrazin-2-yl)-4,5,6,7-tetrahydrooxazolo-[5,4-c]pyridine]	< 10000
N#Cc1cccnc1N1CCc2nc(-c3ccccc3)oc2C1 [Compound 19, 2-(2-Phenyl-6,7-dihydrooxazolo[5,4-c]pyridin-5(4H)-yl)nicotinonitrile]	< 10000
c1ccc(-c2nc3c(o2)CN(c2ccccn2)CC3)cc1 [Compound 20, 2-Phenyl-5-(pyridin-2-yl)-4,5,6,7-tetrahydrooxazolo-[5,4-c]pyridine]	> 10000
N#Cc1cc(F)cc(N2CCc3nc(-c4ccccc4)oc3C2)c1 [Compound 21, 3-Fluoro-5-(2-phenyl-6,7-dihydrooxazolo[5,4-c]pyridin-5(4H)-yl)benzonitrile]	< 1000
c1ccc(-c2nc3c(o2)CN(c2nccs2)CC3)nc1 [Compound 22, 2-(Pyridin-2-yl)-5-(thiazol-2-yl)-4,5,6,7-tetrahydrooxazolo[5,4-c]pyridine]	< 10000
N#Cc1cccc(N2CCc3oc(-c4ccccn4)nc3C2)c1 [Compound 23, 3-(2-(Pyridin-2-yl)-6,7-dihydrooxazolo[4,5-c]pyridin-5(4H)-yl)benzonitrile]	< 1000
N#Cc1ccnc(N2CCc3oc(-c4ccccn4)nc3C2)c1 [Compound 24, 2-(2-(Pyridin-2-yl)-6,7-dihydrooxazolo[4,5-c]pyridin-5(4H)-yl)isonicotinonitrile]	< 1000
N#Cc1cncc(N2CCc3oc(-c4ccccn4)nc3C2)c1 [Compound 25, 5-(2-(Pyridin-2-yl)-6,7-dihydrooxazolo[4,5-c]pyridin-5(4H)-yl)nicotinonitrile]	< 1000
N#Cc1cc(N2CCc3oc(-c4ccccn4)nc3C2)ccn1 [Compound 26, 4-(2-(Pyridin-2-yl)-6,7-dihydrooxazolo[4,5-c]pyridin-5(4H)-yl)picolinonitrile]	< 1000

same assay, conditions: Table 2; aequorin cell line expressing human mGluR5, reference agonist glutamate at EC80; obtained in duplicate; read-out: IC50

Structure (SMILES)	IC50 [nM]
Clc1ccccc1C1CCc2oc(-c3ccccn3)nc2C1 (racemic) [Compound 219, 5-(2-Chlorophenyl)-2-(pyridin-2-yl)-4,5,6,7-tetrahydrobenzo[d]oxazole]	< 1000
Fc1ccc(C2CCc3oc(-c4ccccn4)nc3C2)c(Cl)c1 (racemic) [Compound 223, 5-(2-Chloro-4-fluorophenyl)-2-(pyridin-2-yl)-4,5,6,7-tetrahydrobenzo[d]oxazole]	< 1000
Clc1ccccc1[C@@H]1CCc2oc(-c3ccccn3)nc2C1 (single isomer, unassigned) [Compound 220]	< 1000
Clc1ccccc1[C@H]1CCc2oc(-c3ccccn3)nc2C1 (single isomer, unassigned) [Compound 221]	< 1000
Fc1ccc([C@@H]2CCc3oc(-c4ccccn4)nc3C2)c(Cl)c1 (single isomer, unassigned) [Compound 224]	< 1000
Fc1ccc([C@H]2CCc3oc(-c4ccccn4)nc3C2)c(Cl)c1 (single isomer, unassigned) [Compound 225]	< 1000
